Source: patent US20180320177A1, “COMPOSITIONS AND METHODS FOR THE TREATMENT OF LIVER FIBROSIS” (UNIVERSITY OF CONNECTICUT, priority 2015, published 2018)
Entries after “also recorded” stand apart in the source; their conditions may differ.

Columns and labels:
HMGB2 protein = target: T1, HMGB2 protein (Mus musculus, UniProt P30681); assay: Western blot of HMGB2 protein in liver of CCl4-treated mice; type: in vivo
T1 construct: Total protein lysates were prepared from livers and cells in lysis buffer; from tissue; host or cells: mouse liver (C57BL/6J, CCl4 with or without ICM)
T1 sequence (P30681 1-210): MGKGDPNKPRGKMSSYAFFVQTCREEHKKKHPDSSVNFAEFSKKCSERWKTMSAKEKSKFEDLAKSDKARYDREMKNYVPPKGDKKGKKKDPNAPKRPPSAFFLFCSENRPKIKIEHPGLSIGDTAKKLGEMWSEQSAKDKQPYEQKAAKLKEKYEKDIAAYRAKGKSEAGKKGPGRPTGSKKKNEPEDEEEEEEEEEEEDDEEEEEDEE
Protocol: (§1) Animal Care: All animal care and experimental procedures were approved by the Institutional Animal Care and Use Committee at the University of Connecticut. Shp^−/− mice were described previously. Hmgb2^−/− mice were obtained from Dr. Stella Tsirka at Stony Brook University. C57BL/6J mice were purchased from Jackson Laboratory. All mice were maintained on a 12-h light/dark cycle with free access to food and water unless otherwise indicated. For CCl4 treatment, CCl4 (Sigma) was dissolved in corn oil and administered to mice at a dose of 850 μl/kg BW by intraperitoneal injection (IP) twice a week for 6 or 10 weeks with or without ICM. Age-matched control mice were treated with a corn oil vehicle. For CCl4+ICM treatment, mice were treated with CCl4 for 2 weeks and then ICM (Department of Pharmaceutical Sciences at UConn) was dissolved in PEG (Sigma) and treated with mice (10 mg/kg) every day for 4 or 8 weeks in combination with CCl4. To induce overexpression of HMGB2 in liver, AAV8-Hmgb2 or a control AAV8-GFP was given to mice by tail vein injection at a dose of 5×10^10 GC. To knockdown HMGB2 in mouse livers, AAV-shHmgb2 or a control AAV-shGFP was delivered to mice at a dose of 2×10^10 GC by tail vein injection. One week later, mice injected with AAVs were treated with CCl4 or CCl4 +ICM as described above and sacrificed. […]

HMGB1 protein = target: T2, HMGB1 protein (Mus musculus, UniProt P63158); assay: Western blot of HMGB1 protein in liver of CCl4-treated mice; type: in vivo; details: CCl4+ICM (FIG. 16)
T2 construct: Total protein lysates were prepared from livers and cells in lysis buffer; from tissue; host or cells: mouse liver
T2 sequence (P63158 1-215): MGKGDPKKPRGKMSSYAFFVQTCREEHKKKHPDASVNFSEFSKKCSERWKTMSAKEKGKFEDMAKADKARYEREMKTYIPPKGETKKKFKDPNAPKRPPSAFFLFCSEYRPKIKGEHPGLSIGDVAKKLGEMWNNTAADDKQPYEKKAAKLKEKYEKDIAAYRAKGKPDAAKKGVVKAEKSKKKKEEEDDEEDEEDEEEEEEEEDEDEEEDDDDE
Protocol: as §1

SMILES: CC1(C)Oc2cc(O)ccc2C2C1=CCn1c(=O)n(-c3ccccc3)c(=O)n12 (stereo not drawn) [ICM, inflachromene]
- liver HMGB2 protein induced by CCl4 (HMGB2 protein; CCl4 mice treated with ICM, Western blot): decreases; also recorded: blocked by ICM; also recorded: reduction in liver HMGB2 protein
- selectivity HMGB2 protein versus HMGB1 protein (HMGB2 protein; mouse liver, CCl4+ICM (FIG. 16)): more selective to downregulate HMGB2 protein
- HMGB1 protein (HMGB1 protein): less effect on HMGB1 protein
